Test results from paper PMC6024778 (Viruses, 2018).
Where a name gives a salt, the structure may show the parent alone. Read-outs that look alike come from different tables or passages of the source.

How the values were obtained:
[1] = test system: MERS-CoV; test: microbe, parasite or virus in culture; type: cell-based
[2] = in vitro; conditions: human
[3] = in vitro; conditions: cat
[4] = test system: Feline infectious peritonitis virus (FIPV); test: microbe, parasite or virus in culture; type: cell-based; conditions: Alphacoronavirus 1
[5] = test system: MERS-CoV; type: cell-based
[6] = test system: MERS-CoV; type: cell-based; remark: listed apart in the source
[7] = test system: MERS-CoV; type: cell-based; remark: listed apart in the source
[8] = test system: MERS-CoV; type: cell-based; remark: listed apart in the source
[9] = test system: rMERS-CoV; test: microbe, parasite or virus in culture; type: cell-based, MERS-CoV; conditions: Middle East respiratory syndrome-related coronavirus, Huh-7, 72 h
[10] = test system: MERS-CoV; type: cell-based; remark: listed apart in the source
[11] = test system: Huh-7 cells
[12] = test system: HCoV-229E; test: microbe, parasite or virus in culture; type: cell-based; conditions: Human coronavirus 229E
[13] = test system: HCoV-OC43; test: microbe, parasite or virus in culture; type: cell-based, betacoronavirus OC43 strain; conditions: Betacoronavirus 1, OC43
[14] = test system: MERS-CoV nucleocapsid (N) protein; type: cell-based
[15] = Middle East respiratory syndrome-related coronavirus, Huh-7, 72 h

Molecule OCCOCCN1CCN(C(c2ccccc2)c2ccc(Cl)cc2)CC1 (stereo not shown) [Hydroxyzine pamoate] has an EC50 [1, 15] of 14.4 ± 3.4 µM and a CC50 [2] of over 50 µM.

CN1CCN(c2nc(C3=C(c4c[nH]c5ccccc45)C(=O)NC3=O)c3ccccc3n2)CC1 [Sotrastaurin] gave an EC50 [1, 15] of about 9.7 µM and a CC50 [2] of over 50 µM.

In the case of CN1CCN(CCOc2cc(OC3CCOCC3)c3c(Nc4c(Cl)ccc5c4OCO5)ncnc3c2)CC1 [Saracatinib], the CC50 [3] is reported as over 50 µM, the EC50 [4] is reported as 7 µM and the “reduction in infectious virus titers” value [5] is reported as ~ 80%. The “reduction of viral titer” value [6] was “marginal reduction”, the “intracellular viral genomic RNA and mRNA expressions” value [7] was “significant decrease” and the “syntheses of intracellular viral genomic RNA and mRNAs” value [7] was “severely affected”. For the same molecule, the “viral genomic RNA and mRNA syntheses” value [7] was “near complete inhibition”, the “antiviral activity (viral titer)” value [8] was “less effective” and the “reduction of MERS-CoV titer” value [8] was “more pronounced”. For the same molecule, the viral titer [8] was “marked reduction”, the EC50 [9] was 9.3 µM and the “selectivity index (SI)” value [1] was over 17. For the same molecule, the EC50 [1, 15] was 2.9 ± 0.6 µM, the “intracellular viral genomic (ORF1a) and mRNA (upE) syntheses” value [10] was “near complete inhibition” and the CC50 ([11]; human) was 57 ± 5.5 µM. The EC50 [12] was 2.4 µM and the EC50 [13] was 5.1 µM.

CCN(CC)Cc1cc(Nc2ccnc3cc(Cl)ccc23)ccc1O [Amodiaquine dihydrochloride dehydrate] gave an EC50 ([1]; read-out: EC50) of 2.4 ± 0.7 µM.

Work on CCN(CC)CCCC(C)Nc1ccnc2cc(Cl)ccc12 (stereo not shown) [Chloroquine diphosphate] yielded an EC50 [1, 15] of 12 ± 3 µM and a CC50 [2] of over 50 µM.

In the case of COc1ccc2c(c1)N(C[C@H](C)CN(C)C)c1ccccc1S2 [Methotrimeprazine maleate salt], the EC50 ([1]; read-out: EC50) is reported as 2.5 µM and the CC50 [11] is reported as 24.5 µM.

CC(=O)c1ccc2c(c1)N(CCCN1CCN(CCO)CC1)c1ccccc1S2 [Acetophenazine maleate] showed an EC50 ([1]; read-out: EC50) of 11.2 ± 5 µM and a CC50 [11] of 23.6 ± 3.8 µM.

In the case of CCN(CCO)CCCC(C)Nc1ccnc2cc(Cl)ccc12 (stereo not shown) [Hydroxychloroquine sulfate], the EC50 [1, 15] is reported as 13.3 ± 2.1 µM and the CC50 [2] is reported as over 50 µM.

In the case of Nc1ccn([C@@H]2O[C@H](CO)[C@@H](O)C2(F)F)c(=O)n1 [Gemcitabine, gemcitabine hydrochloride], the “production of infectious MERS-CoV particles” value [6] is reported as “completely abolished”, the EC50 [1, 15] is reported as 1.2 µM and the “viral N protein expression” value [14] is reported as “completely abolished”.

In the case of CN(C)CC/C=C1\c2ccccc2CSc2ccccc21 [Dosulepin hydrochloride], the EC50 [1, 15] is reported as 3.4 µM and the CC50 [2] is reported as 28.9 µM.

Molecule COc1ccc(C2=N[C@@H](c3ccc(Cl)cc3)[C@@H](c3ccc(Cl)cc3)N2C(=O)N2CCNC(=O)C2)c(OC(C)C)c1 [Nutlin-3] has an EC50 [1, 15] of 6.9 ± 1.4 µM and a CC50 [2] of 26.8 ± 1.6 µM.

Work on CCN(CC)Cc1cc(Nc2ccnc3cc(Cl)ccc23)ccc1O [Amodiaquine dihydrochloride] yielded an EC50 ([1]; read-out: EC50) of 2.1 ± 0.7 µM.

With O=C(Nc1ccncc1)c1cc([N+](=O)[O-])ccc1Cl [N1-(4-pyridyl)-2-chloro-5-nitrobenzamide] the EC50 [1, 15] was 10.5 ± 0.3 µM and the CC50 [2] was over 50 µM.
